Test results reported in patent publication US9969796B2, “Peptides and binding partners therefor” (priority 2013, dated 2018).

Tested on: Drosophila melanogaster
Test: Drosophila melanogaster (fruit fly) injection model
Type: in vivo
Details: 250 μg/ml; for flies recovering after 24 hours: 24 hours post-injection; for signs of paralysis in injected flies: cohort of 20 age-matched flies
Experimental: FIG. 17 is a graph showing the results of an experiment to show Drosophila killing by Ece1-III. The percentage of Drosophila death, 24 hours post-infection of 250 μg/ml His-tagged full length Ece1p, Ece1-II (peptide 2) (FIG. 2), and Ece1-III (peptide 3), into a cohort of 20 age-matched flies.
The applicants also determined the effect of administering full length His-tagged Ece1p and Ece1-III in a Drosophila melanogaster (fruit fly) model.

| Compound | flies recovering after 24 hours [%] | signs of paralysis in injected flies |
| --- | --- | --- |
| full length His-tagged Ece1p: His-tagged full length Ece1 protein of C. albicans | 17.5 | displayed signs of paralysis |
| CC[C@H](C)[C@H](NC(=O)[C@H](C)NC(=O)[C@@H](NC(=O)[C@H](CC(N)=O)NC(=O)[C@H](Cc1ccccc1)NC(=O)[C@H](CCC(=O)O)NC(=O)[C@H](CCC(N)=O)NC(=O)[C@@H]1CCCN1C(=O)[C@H](C)NC(=O)[C@@H]1CCCN1C(=O)[C@@H](NC(=O)[C@@H](NC(=O)[C@@H]1CCCN1C(=O)[C@H](C)NC(=O)[C@H](CCC(N)=O)NC(=O)[C@H](CC(=O)O)NC(=O)[C@H](C)NC(=O)[C@@H]1CCCN1C(=O)[C@H](C)NC(=O)[C@H](C)NC(=O)[C@@H]1CCCN1C(=O)[C@H](C)NC(=O)[C@H](C)NC(=O)[C@@H]1CCCN1C(=O)[C@H](C)NC(=O)[C@@H](NC(=O)[C@@H](N)CC(=O)O)C(C)C)[C@@H](C)O)C(C)C)[C@@H](C)O)C(=O)N[C@H](C(=O)N[C@@H](CCCCN)C(=O)N[C@@H](CCCNC(=N)N)C(=O)O)[C@@H](C)O [Ece1-II] |  | no signs of paralysis |
| CC[C@H](C)[C@H](NC(=O)CNC(=O)[C@H](CCSC)NC(=O)[C@@H](NC(=O)[C@@H](NC(=O)CNC(=O)[C@@H](NC(=O)[C@@H](NC(=O)[C@@H](N)CO)[C@@H](C)CC)[C@@H](C)CC)[C@@H](C)CC)[C@@H](C)CC)C(=O)N[C@@H](CC(C)C)C(=O)NCC(=O)N[C@@H](CC(N)=O)C(=O)N[C@H](C(=O)N1CCC[C@H]1C(=O)N[C@@H](CCC(N)=O)C(=O)N[C@H](C(=O)N[C@H](C(=O)N[C@@H](CCC(N)=O)C(=O)N[C@H](C(=O)N[C@H](C(=O)N[C@@H](CCSC)C(=O)N[C@@H](CO)C(=O)N[C@H](C(=O)N[C@H](C(=O)N[C@@H](CCCCN)C(=O)N[C@@H](C)C(=O)N[C@@H](Cc1ccccc1)C(=O)N[C@@H](CCCCN)C(=O)NCC(=O)N[C@@H](CC(N)=O)C(=O)N[C@@H](CCCCN)C(=O)N[C@@H](CCCNC(=N)N)C(=O)O)C(C)C)[C@@H](C)CC)[C@@H](C)CC)[C@@H](C)CC)[C@@H](C)CC)C(C)C)[C@@H](C)CC [Ece1-III] | 10 | displayed signs of paralysis |
